This is an account of results in ChEMBL document CHEMBL1201862, “PubChem BioAssay data set” (2004).

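1) Cells in 96-well plates. 2) Compound, 48 h, 5 concentrations. 3) Linear interpolation between surrounding doses. 4) Unreached endpoint = highest concentration. Here, GI50 denotes the concentration required for 50% inhibition of growth.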 Calls of active or inactive are those of the source. Cut-off read from the data, not from the text of the source: active = GI50 up to about 1.1 µM and inactive = higher.

Among the test systems are UACC-62; ACHN; T47D; HT-29; NCI-H522; SN12C; M14; U-251; NCI-H226; OVCAR-5; KM12; RPMI-8226; HL-60; SF-268; SF-295; HCT-15; HOP-92; RXF 393; TK-10; MOLT-4.
What all share (assay): inhibition of tumour cell growth, NCI panel, 48 h

On to `CCOC(=O)CNC(=O)C(CSCC1C(=O)Nc2ccccc21)NC(=O)CCC(N)C(=O)OCC` (configuration not stated), for which the GI50 in the assay on UACC-62 was 1.57 µM (inactive); with ACHN it was 1.62 µM (inactive); in the assay with T47D it was 5.65 µM (inactive); in the assay with HT-29 it was 1.55 µM (inactive); with NCI-H522, 1.63 µM (inactive); with SN12C, 1.52 µM (inactive). Moreover, the GI50 is 1.84 µM (inactive) in the assay with M14; 1.31 µM (inactive) in the assay on U-251; 1.93 µM (inactive) with NCI-H226; 1.84 µM (inactive) with OVCAR-5; 2.89 µM (inactive) in the assay with KM12; 1.27 µM (inactive) in the assay on RPMI-8226. Also, the GI50 was 2.36 µM (inactive) with HL-60; 1.86 µM (inactive) in the assay with SF-268; 2.77 µM (inactive) in the assay on SF-295; 1.04 µM in the assay with HCT-15; 1.25 µM (inactive) with HOP-92; 1.19 µM (inactive) with RXF 393. In addition, in the assay on TK-10, the GI50 was 1.62 µM (inactive).
On to `COc1cc2c(c(O)c1C)C(=O)C(Cl)=CC2=O`, for which the GI50 was 7.23 µM (inactive) in the assay on UACC-62; 6.4 µM (inactive) in the assay with ACHN; 2.17 µM (inactive) in the assay on T47D; 10.8 µM (inactive) with HT-29; 2.36 µM (inactive) with NCI-H522; 12.4 µM (inactive) in the assay with SN12C. Besides, the GI50 with M14 was 6.47 µM (inactive); with U-251 it was 21.4 µM (inactive); in the assay with NCI-H226, 15.1 µM (inactive); in the assay with OVCAR-5, 28.5 µM (inactive); in the assay on MOLT-4 it was 1.88 µM (inactive); in the assay with KM12, 19.5 µM (inactive). In addition, the GI50 in the assay with RPMI-8226 was 6.35 µM (inactive); in the assay with HL-60 it was 0.933 µM (active); with SF-268 it was 17.8 µM (inactive); with SF-295 it was 18.7 µM (inactive); in the assay on HCT-15 it was 11.5 µM; in the assay on HOP-92, 4.71 µM (inactive). Also, the GI50 in the assay on RXF 393 is 6.31 µM (inactive); in the assay on TK-10 it was 7.41 µM (inactive).
As for `Cc1ccccc1-n1c(=O)c2ncn(C3CCCO3)c2n(-c2ccccc2C)c1=S` (configuration not stated), the GI50 with UACC-62, with ACHN, in the assay with T47D, in the assay on HT-29, with NCI-H522 and in the assay on SN12C was > 100 µM (inactive) each time. In addition, the GI50 in the assay on M14, in the assay on NCI-H226, with OVCAR-5, in the assay on MOLT-4, with KM12 and in the assay with RPMI-8226 was > 100 µM (inactive) in each case. For the same molecule, the GI50 is > 100 µM (inactive) in the assay on HL-60; > 100 µM (inactive) in the assay on SF-268; > 100 µM (inactive) with SF-295; more than 100 µM in the assay on HCT-15; > 100 µM (inactive) in the assay with HOP-92; > 100 µM (inactive) in the assay on RXF 393. The GI50 with TK-10 is > 100 µM (inactive).
Consider `CC1=CCC[C@@](C)(O)[C@@H]2C[C@H]3C(CSc4ccccc4)C(=O)O[C@H]3[C@@H](O2)[C@H](C)CCC1` (some centres not stated), for which the GI50 was 14.8 µM (inactive) with UACC-62; 12.9 µM (inactive) in the assay on ACHN; 22.2 µM (inactive) with T47D; 10.7 µM (inactive) in the assay on NCI-H522; 38.2 µM (inactive) with SN12C; 13.7 µM (inactive) in the assay on M14. Moreover, the GI50 in the assay on U-251 was 21.2 µM (inactive); with OVCAR-5 it was 15.9 µM (inactive); in the assay with MOLT-4 it was 7.13 µM (inactive); in the assay with KM12, 9.18 µM (inactive); in the assay with RPMI-8226, 7.43 µM (inactive); in the assay with HL-60 it was > 100 µM (inactive). Besides, the GI50 with SF-268 was 34 µM (inactive); with SF-295, 12 µM (inactive); with HCT-15 it was 19 µM; with HOP-92, 26.9 µM (inactive); in the assay on RXF 393 it was 13.7 µM (inactive); in the assay with TK-10, 17.3 µM (inactive).
As for `CC[C@]12C=CCN3CC[C@@]4(c5cc(N=O)c(OC)cc5N(C)[C@H]4[C@@](O)(C(=O)OC)[C@@H]1OC(C)=O)[C@@H]32`, the GI50 is 51.4 µM (inactive) in the assay on UACC-62; 61.7 µM (inactive) in the assay with ACHN; 35 µM (inactive) in the assay with T47D; 48.5 µM (inactive) in the assay with HT-29; 18.5 µM (inactive) in the assay with NCI-H522; 34.3 µM (inactive) in the assay with SN12C. For the same molecule, the GI50 in the assay with M14 is 89.5 µM (inactive); in the assay with U-251 it was 16.7 µM (inactive); with NCI-H226 it was > 100 µM (inactive); with OVCAR-5 it was > 100 µM (inactive); with MOLT-4 it was 35.6 µM (inactive); in the assay on KM12, 90.8 µM (inactive). In addition, the GI50 in the assay on HL-60 was 37.8 µM (inactive); in the assay on SF-268 it was > 100 µM (inactive); with SF-295 it was 99.5 µM (inactive); in the assay on HCT-15 it was 86.3 µM; with HOP-92 it was > 100 µM (inactive); with RXF 393 it was 44.1 µM (inactive). Also, in the assay with TK-10, the GI50 is > 100 µM (inactive).
In the case of `O=C(Nc1ccccc1)N1N=C(c2ccccc2)C1c1ccccc1` (configuration not stated), the GI50 with UACC-62 was 20.2 µM (inactive); with ACHN, 22 µM (inactive); in the assay with T47D, 59.6 µM (inactive); in the assay with HT-29 it was 20.5 µM (inactive); in the assay with NCI-H522, 19.9 µM (inactive); in the assay with SN12C, 48 µM (inactive). Also, the GI50 in the assay on M14 is 20 µM (inactive); with U-251, 36.2 µM (inactive); in the assay on NCI-H226 it was 18.8 µM (inactive); in the assay on OVCAR-5, 23.2 µM (inactive); in the assay with KM12 it was 29.9 µM (inactive); in the assay with RPMI-8226 it was 14 µM (inactive). Also, the GI50 in the assay on HL-60 is 21.9 µM (inactive); with SF-268, 21.1 µM (inactive); with SF-295, 24.3 µM (inactive); with HCT-15, 33.8 µM; with HOP-92, 23.4 µM (inactive); in the assay with RXF 393, 17.3 µM (inactive). The GI50 with TK-10 was 36.1 µM (inactive).
Turning to `O=C(O)C1(Nc2ccc(Cl)cc2)CCCC1`, the GI50 in the assay on UACC-62, with ACHN, in the assay on T47D, in the assay with HT-29, in the assay on NCI-H522 and in the assay on SN12C was > 100 µM (inactive) in each case. The GI50 in the assay with M14, in the assay on U-251, in the assay with NCI-H226, in the assay on OVCAR-5, in the assay on KM12 and with RPMI-8226 was > 100 µM (inactive) throughout. Besides, the GI50 in the assay with HL-60 was 77.8 µM (inactive); in the assay on SF-268, > 100 µM (inactive); with SF-295, 97.9 µM (inactive); with HCT-15, 11.5 µM; in the assay on HOP-92, > 100 µM (inactive); in the assay with RXF 393, > 100 µM (inactive). In addition, the GI50 in the assay on TK-10 is > 100 µM (inactive).
Consider `COC1C=C(NCC2(CO)CCC2)N=C(N)N1` (configuration not stated), for which the GI50 in the assay with UACC-62, with T47D, with HT-29, in the assay on NCI-H522, in the assay on SN12C and in the assay with M14 was > 100 µM (inactive) throughout. Moreover, the GI50 in the assay on U-251, in the assay on NCI-H226, in the assay with OVCAR-5, in the assay on MOLT-4, in the assay on KM12 and in the assay on RPMI-8226 was > 100 µM (inactive) throughout. Further, the GI50 is > 100 µM (inactive) with HL-60; > 100 µM (inactive) in the assay with SF-268; > 100 µM (inactive) with SF-295; more than 100 µM in the assay with HCT-15; > 100 µM (inactive) in the assay on HOP-92; > 100 µM (inactive) with RXF 393.
Turning to `O=C(Nc1ccccc1)c1cc(S(=O)(=O)N2CCNNC2=O)c(S)cc1Cl`, the GI50 in the assay on UACC-62 was > 100 µM (inactive); in the assay with ACHN, > 100 µM (inactive); in the assay on T47D, 44.5 µM (inactive); with NCI-H522 it was 24.7 µM (inactive); in the assay on SN12C, > 100 µM (inactive); with M14 it was > 100 µM (inactive). In addition, the GI50 is > 100 µM (inactive) with U-251; > 100 µM (inactive) with NCI-H226; > 100 µM (inactive) in the assay on OVCAR-5; 71.6 µM (inactive) in the assay with MOLT-4; > 100 µM (inactive) in the assay with KM12; 33.9 µM (inactive) in the assay with RPMI-8226. Also, the GI50 in the assay on HL-60 was > 100 µM (inactive); in the assay on SF-268, > 100 µM (inactive); in the assay on SF-295 it was > 100 µM (inactive); in the assay with HCT-15, 59.2 µM; with HOP-92, 47.3 µM (inactive); in the assay on RXF 393 it was 21.3 µM (inactive). Also, the GI50 with TK-10 is > 100 µM (inactive).
For the molecule `Cc1ccc(-n2cc(-c3ccc(Cl)cc3)c3c(NN)ncnc32)cc1`, the GI50 with UACC-62 is 2.67 µM (inactive); in the assay on ACHN, 3.31 µM (inactive); in the assay with T47D, 2.55 µM (inactive); in the assay with HT-29, 4.48 µM (inactive); with NCI-H522 it was 3.58 µM (inactive); in the assay with SN12C, 2.84 µM (inactive). Also, the GI50 is 1.38 µM (inactive) with M14; 1.82 µM (inactive) with U-251; 2.38 µM (inactive) in the assay on NCI-H226; 6.43 µM (inactive) with OVCAR-5; 2.36 µM (inactive) in the assay with MOLT-4; 10.7 µM (inactive) with KM12. Moreover, the GI50 is 2.1 µM (inactive) with HL-60; 2.64 µM (inactive) with SF-268; 3.36 µM (inactive) in the assay with SF-295; 4.4 µM in the assay with HCT-15; 2.97 µM (inactive) with HOP-92; 2.75 µM (inactive) with RXF 393. In the assay on TK-10, the GI50 was 12.4 µM (inactive).
Consider `c1ccc(C[N+]23C(CC[C@H]2c2ccccc2)CC[C@H]3c2ccccc2)cc1` (some centres not stated), for which the GI50 with ACHN was > 100 µM (inactive); in the assay with T47D, 8.47 µM (inactive); with HT-29, 17.9 µM (inactive); with NCI-H522, 18 µM (inactive); in the assay with SN12C, 37.5 µM (inactive); in the assay with M14, 21.6 µM (inactive). For the same molecule, the GI50 in the assay with U-251 is 25.3 µM (inactive); with NCI-H226, 22.1 µM (inactive); in the assay on OVCAR-5 it was 86.1 µM (inactive); in the assay with MOLT-4 it was 27.9 µM (inactive); in the assay with KM12, 21.8 µM (inactive); in the assay with RPMI-8226, 2.94 µM (inactive). In addition, the GI50 is 11.2 µM (inactive) with HL-60; 43.5 µM (inactive) in the assay with SF-268; 35.3 µM (inactive) in the assay on SF-295; 13.2 µM (inactive) in the assay with HOP-92; 18.3 µM (inactive) with RXF 393; 74.1 µM (inactive) in the assay on TK-10.
